Experimental findings from the supplement of paper PMC10307832 are described below.

Holding throughout (assay): relative viability (nuclei count vs DMSO), 5 days (fraction); higher = more cells survive
Compound in assay [1]: CC1=CC=C(C=C1)C(=O)CN2C3=C(CCCC3)SC2=N [Pifithrin_alpha] + CC(=O)Nc1cccc(-n2c(=O)n(C3CC3)c(=O)c3c(Nc4ccc(I)cc4F)n(C)c(=O)c(C)c32)c1 [Trametinib] (partner 0.02 µM)
An outline of the steps: (§1)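 Lung cancer cell lines, seeded in 1536-well plates, were treated the following day by pin tool with a single drug or with five library-drug doses (not always all listed) in √10 steps on top of a fixed anchor-drug dose. Cells were fixed and nuclei stained in one step after 5 days, and nuclei were counted. Relative viability is the nuclei count for treated wells divided by that for vehicle wells, reported as medians of duplicate plates.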

Compound in assay [2]: CNC(=O)c1ccccc1Sc1ccc2c(/C=C/c3ccccn3)n[nH]c2c1 [Axitinib] + COc1cc2c(Oc3ccc(NC(=O)C4(C(=O)Nc5ccc(F)cc5)CC4)cc3F)ccnc2cc1OCCCN1CCOCC1 [Foretinib] (partner 0.25 µM)
In short, it runs like this:
as §1

Compound in assay [3]: Nc1nc(Nc2ccc3c(c2)CC[C@@H](N2CCCC2)CC3)nn1-c1cc2c(nn1)-c1ccccc1CCC2 [Bemcentinib] + CC(=O)Nc1cccc(-n2c(=O)n(C3CC3)c(=O)c3c(Nc4ccc(I)cc4F)n(C)c(=O)c(C)c32)c1 [Trametinib] (partner 0.02 µM)
In short, it runs like this: as §1

Compound in assay [4]: Nc1nc(Nc2ccc3c(c2)CC[C@@H](N2CCCC2)CC3)nn1-c1cc2c(nn1)-c1ccccc1CCC2 [Bemcentinib] + Cc1nc(Nc2ncc(C(=O)Nc3c(C)cccc3Cl)s2)cc(N2CCN(CCO)CC2)n1 [Dasatinib] (partner 0.075 µM)
An outline of the steps:
as §1

Take NCI-H650: the relative viability is 0.947 in assay [1] (first compound 3.162 µM); 0.978 in assay [1] (first compound 10 µM); 0.785 in assay [1] (first compound 31.62 µM); 0.985 in assay [1] (first compound 100 µM); 1.08 in assay [2] (first compound 0.005 µM); 1.12 in assay [2] (first compound 0.01581 µM). The relative viability was 0.953 in assay [2] (first compound 0.05 µM); 0.984 in assay [2] (first compound 0.1581 µM); 1.07 in assay [2] (first compound 0.5 µM); 1.08 in assay [3] (first compound 0.04 µM); 0.993 in assay [3] (first compound 0.1265 µM); 0.963 in assay [3] (first compound 0.4 µM). Also, the relative viability in assay [3] (first compound 1.265 µM) was found to be 0.947; in assay [3] (first compound 4 µM), 0.966; in assay [4] (first compound 0.04 µM), 0.424; in assay [4] (first compound 0.1265 µM), 0.514; in assay [4] (first compound 0.4 µM), 0.474; in assay [4] (first compound 1.265 µM) it was 0.43. Besides, the relative viability in assay [4] (first compound 4 µM) was 0.4.
